From patent EP1344776A1, “5- 2-hydroxy-3-[1-(3-trifluoromethylphenyl)-cyclopropyl]-propionylamino -phtalide and 6- 2-hydroxy-3-[1-(3-trifluoromethylphenyl)-cyclopropyl]-propionylamino -4-methyl-2,3-benzoxazin-1-one derivatives with progesterone receptor modulating activity for use in fertility control, hormone replacement …” (Schering Aktiengesellschaft, priority 2002, dated 2003)
Like-named read-outs stand apart in the source and are kept apart here.

Experiments:
female rats = assay: Ovulation inhibition test in rat; assay type: in vivo
Protocol: Before the treatment is started, two […] cycles of female rats (weight: 190 to 210 g) were monitored. Only animals having a regular 4 day-cycle are used for the subsequent test. Starting in the metoestrus, the test compound is administered for 4 days (day 1 to 4) and the cycle is controlled thereafter.
For subcutaneous application, the test compounds are dissolved in benzyl benzoate/castor oil (1+9 v/v) and the daily dose is administered in a volume of 1 ml/kg body weight.
For peroral application, the test compounds are suspended in a carrier liquid (85 mg Myrj^R in 100 ml 0.9 % w/v NaCl solution) and the daily dose is administered in a volume of 2 ml/kg body weight.
On day 4, after the application of the test compound, those animals having estrus or metoestrus are ovariectomized under ether anesthesia on one side. Preparations of the tubes are prepared and they are investigated for ova by means of microscope. On day 5 all animals (intact and partly ovariectomized) are killed with carbon dioxide, the tubes are preserved and analyzed in the same way. It is then determined, as a percentage, in how many animals ovulation was inhibited.

androgen receptor (AR) = target: T1, androgen receptor (AR) (Homo sapiens, UniProt P10275); assay: Androgen receptor binding
T1 sequence (P10275 1-920): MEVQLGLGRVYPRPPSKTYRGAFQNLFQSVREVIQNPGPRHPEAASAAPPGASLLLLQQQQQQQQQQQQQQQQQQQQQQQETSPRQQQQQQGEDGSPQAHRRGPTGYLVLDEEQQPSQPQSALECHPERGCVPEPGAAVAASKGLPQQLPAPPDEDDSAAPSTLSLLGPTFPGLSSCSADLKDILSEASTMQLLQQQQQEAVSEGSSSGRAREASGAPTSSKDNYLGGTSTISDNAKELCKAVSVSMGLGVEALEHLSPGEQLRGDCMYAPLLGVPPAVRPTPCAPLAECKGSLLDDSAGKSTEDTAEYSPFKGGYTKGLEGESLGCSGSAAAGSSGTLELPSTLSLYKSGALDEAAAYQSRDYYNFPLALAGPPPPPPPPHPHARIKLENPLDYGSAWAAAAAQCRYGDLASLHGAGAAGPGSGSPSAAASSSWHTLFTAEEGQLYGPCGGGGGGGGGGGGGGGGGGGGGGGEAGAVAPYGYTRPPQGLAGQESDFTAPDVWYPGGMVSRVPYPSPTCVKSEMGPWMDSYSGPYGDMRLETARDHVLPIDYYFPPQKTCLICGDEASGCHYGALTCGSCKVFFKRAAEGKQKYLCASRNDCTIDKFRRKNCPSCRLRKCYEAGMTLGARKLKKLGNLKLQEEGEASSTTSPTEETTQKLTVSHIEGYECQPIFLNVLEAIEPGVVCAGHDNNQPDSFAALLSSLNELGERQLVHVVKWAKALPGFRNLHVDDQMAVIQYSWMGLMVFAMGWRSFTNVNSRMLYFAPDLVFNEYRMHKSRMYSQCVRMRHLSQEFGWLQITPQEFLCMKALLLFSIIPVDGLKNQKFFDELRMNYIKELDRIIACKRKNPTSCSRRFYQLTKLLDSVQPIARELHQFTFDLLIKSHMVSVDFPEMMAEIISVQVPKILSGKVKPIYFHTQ

[1] = target: T2, mineralocorticoid receptor (MR) (Homo sapiens, UniProt P08235); assay: Mineralocorticoid receptor binding; conditions: in vitro
T2 sequence (P08235 1-984): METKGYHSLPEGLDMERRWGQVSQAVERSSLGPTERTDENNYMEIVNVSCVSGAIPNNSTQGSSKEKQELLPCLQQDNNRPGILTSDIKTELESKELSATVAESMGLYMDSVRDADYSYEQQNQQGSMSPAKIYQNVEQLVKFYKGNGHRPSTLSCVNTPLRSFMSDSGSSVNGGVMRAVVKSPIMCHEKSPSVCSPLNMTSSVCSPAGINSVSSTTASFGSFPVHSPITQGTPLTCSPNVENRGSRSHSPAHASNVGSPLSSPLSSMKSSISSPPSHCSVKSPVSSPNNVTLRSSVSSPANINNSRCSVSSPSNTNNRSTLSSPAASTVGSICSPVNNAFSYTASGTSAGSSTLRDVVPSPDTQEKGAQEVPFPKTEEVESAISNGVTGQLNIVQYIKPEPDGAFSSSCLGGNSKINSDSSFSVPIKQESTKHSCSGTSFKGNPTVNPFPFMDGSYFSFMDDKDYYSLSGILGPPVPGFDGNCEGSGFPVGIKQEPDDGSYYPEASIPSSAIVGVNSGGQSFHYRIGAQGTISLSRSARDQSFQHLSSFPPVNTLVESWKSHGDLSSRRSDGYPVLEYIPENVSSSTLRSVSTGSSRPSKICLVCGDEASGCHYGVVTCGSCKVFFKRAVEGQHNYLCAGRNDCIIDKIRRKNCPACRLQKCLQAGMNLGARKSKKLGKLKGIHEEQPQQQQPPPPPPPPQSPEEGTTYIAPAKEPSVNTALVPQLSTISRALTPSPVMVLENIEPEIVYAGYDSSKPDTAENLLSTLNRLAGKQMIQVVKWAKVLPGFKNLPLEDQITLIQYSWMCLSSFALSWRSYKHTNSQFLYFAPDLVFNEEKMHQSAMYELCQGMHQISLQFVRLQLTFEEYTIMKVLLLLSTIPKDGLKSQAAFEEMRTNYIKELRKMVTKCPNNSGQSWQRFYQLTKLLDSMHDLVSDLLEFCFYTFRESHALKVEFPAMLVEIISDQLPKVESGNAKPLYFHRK

In the case of `O=C1OCc2cc(NC(=O)C(O)(CC3(c4cc(C(F)(F)F)ccc4F)CC3)C(F)(F)F)ccc21` (single isomer, unassigned; (+)) [((+)-1), (+)-5-{2-hydroxy-3-[1-(2-fluoro-5-trifluoromethylphenyl)-cyclopropyl]-2-trifluoromethyl-propionylamino}-phthalide], the ED50 (female rats; Rattus norvegicus, ovulation inhibition, adult female rats (Table 1-a), read-out: ED50) is reported as 0.045 mg/kg, the “% Inhibition” value (female rats; ovulation inhibition, rat, dose 10 µg/kg, days 1 to 4) is reported as 0% and the ED50 (female rats; rat (Table 1-b), read-out: Ovulation Inhibition (rat) [ED50]) is reported as 0.04 mg/kg. For the same molecule, the “binding affinity for the androgen receptor (AR)” value (androgen receptor (AR)) was “moderate” and the “affinity for the mineralocorticoid receptor (MR)” value [1] was “negligible”.
